# Reference: PubChem BioAssay (NCI)
#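 Protocol summary: plate cells (96-well), add compound at 5 concentrations, incubate 48 h, interpolate endpoints linearly. The concentration for full growth arrest is given as TGI.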
# Key:
# Assay in all cases: NCI tumour cell line growth inhibition, 48 h
# 786-0 renal = test system: 786-0 renal
# A498 renal = test system: A498 renal
# A549 NSCLC = test system: A549 NSCLC
# ACHN renal = test system: ACHN renal
# BT-549 breast = test system: BT-549 breast
# CAKI-1 renal = test system: CAKI-1 renal
# COLO 205 colon = test system: COLO 205 colon
# DU-145 prostate = test system: DU-145 prostate
# EKVX NSCLC = test system: EKVX NSCLC
# HCT-116 colon = test system: HCT-116 colon
# HCT-15 colon = test system: HCT-15 colon
# HL-60(TB) leukemia = test system: HL-60(TB) leukemia
# HOP-62 NSCLC = test system: HOP-62 NSCLC
# HOP-92 NSCLC = test system: HOP-92 NSCLC
# HS 578T breast = test system: HS 578T breast
# HT29 colon = test system: HT29 colon
# IGROV1 ovarian = test system: IGROV1 ovarian
# K-562 leukemia = test system: K-562 leukemia
# KM12 colon = test system: KM12 colon
# LOX IMVI melanoma = test system: LOX IMVI melanoma
# M14 melanoma = test system: M14 melanoma
# MALME-3M melanoma = test system: MALME-3M melanoma
# MCF7 breast = test system: MCF7 breast
# MDA-MB-231 breast = test system: MDA-MB-231 breast
# MDA-MB-435 = test system: MDA-MB-435
# MOLT-4 leukemia = test system: MOLT-4 leukemia
# NCI-H226 lung = test system: NCI-H226 lung
# NCI-H23 lung = test system: NCI-H23 lung
# NCI-H460 lung = test system: NCI-H460 lung
# NCI-H522 lung = test system: NCI-H522 lung
# NCI/ADR-RES ovarian = test system: NCI/ADR-RES ovarian
# OVCAR-3 ovarian = test system: OVCAR-3 ovarian
# OVCAR-4 ovarian = test system: OVCAR-4 ovarian
# OVCAR-5 ovarian = test system: OVCAR-5 ovarian
# OVCAR-8 ovarian = test system: OVCAR-8 ovarian
# PC-3 prostate = test system: PC-3 prostate
# RPMI-8226 leukemia = test system: RPMI-8226 leukemia
# RXF 393 renal = test system: RXF 393 renal
# SF-268 CNS = test system: SF-268 CNS
# SF-295 CNS = test system: SF-295 CNS
# SF-539 CNS = test system: SF-539 CNS
# SK-MEL-2 melanoma = test system: SK-MEL-2 melanoma
# SK-MEL-28 melanoma = test system: SK-MEL-28 melanoma
# SK-MEL-5 melanoma = test system: SK-MEL-5 melanoma
# SK-OV-3 ovarian = test system: SK-OV-3 ovarian
# SN12C renal = test system: SN12C renal
# SNB-19 CNS = test system: SNB-19 CNS
# SNB-75 CNS = test system: SNB-75 CNS
# SR leukemia = test system: SR leukemia
# SW-620 colon = test system: SW-620 colon
# T-47D breast = test system: T-47D breast
# TK-10 renal = test system: TK-10 renal
# U251 CNS = test system: U251 CNS
# UACC-257 melanoma = test system: UACC-257 melanoma
# UACC-62 melanoma = test system: UACC-62 melanoma
# CCRF-CEM leukemia = test system: CCRF-CEM leukemia
# HCC-2998 colon = test system: HCC-2998 colon
# UO-31 renal = test system: UO-31 renal
structure (smiles),measurement,setting,value
OC1CCN(c2c3ccccc3nc3ccccc23)CC1,TGI,786-0 renal,> 100 µM
same,TGI,A498 renal,35.6 µM
same,TGI,A549 NSCLC,> 100 µM
same,TGI,ACHN renal,26.4 µM
same,TGI,BT-549 breast,41.1 µM
same,TGI,CAKI-1 renal,50.5 µM
same,TGI,COLO 205 colon,9.45 µM
same,TGI,DU-145 prostate,> 100 µM
same,TGI,EKVX NSCLC,> 100 µM
same,TGI,HCT-116 colon,> 100 µM
same,TGI,HCT-15 colon,39.7 µM
same,TGI,HL-60(TB) leukemia,> 100 µM
same,TGI,HOP-62 NSCLC,> 100 µM
same,TGI,HOP-92 NSCLC,> 100 µM
same,TGI,HS 578T breast,> 100 µM
same,TGI,HT29 colon,5.44 µM
same,TGI,IGROV1 ovarian,40.6 µM
same,TGI,K-562 leukemia,> 100 µM
same,TGI,KM12 colon,> 100 µM
same,TGI,LOX IMVI melanoma,> 100 µM
same,TGI,M14 melanoma,> 100 µM
same,TGI,MALME-3M melanoma,36.9 µM
same,TGI,MCF7 breast,10.3 µM
same,TGI,MDA-MB-231 breast,84.9 µM
same,TGI,MDA-MB-435,54.9 µM
same,TGI,MOLT-4 leukemia,> 100 µM
same,TGI,NCI-H226 lung,> 100 µM
same,TGI,NCI-H23 lung,> 100 µM
same,TGI,NCI-H460 lung,50.9 µM
same,TGI,NCI-H522 lung,7.42 µM
same,TGI,NCI/ADR-RES ovarian,> 100 µM
same,TGI,OVCAR-3 ovarian,> 100 µM
same,TGI,OVCAR-4 ovarian,36.6 µM
same,TGI,OVCAR-5 ovarian,> 100 µM
same,TGI,OVCAR-8 ovarian,79 µM
same,TGI,PC-3 prostate,> 100 µM
same,TGI,RPMI-8226 leukemia,> 100 µM
same,TGI,RXF 393 renal,17.5 µM
same,TGI,SF-268 CNS,34 µM
same,TGI,SF-295 CNS,72.9 µM
same,TGI,SF-539 CNS,> 100 µM
same,TGI,SK-MEL-2 melanoma,27.6 µM
same,TGI,SK-MEL-28 melanoma,5.52 µM
same,TGI,SK-MEL-5 melanoma,35.6 µM
same,TGI,SK-OV-3 ovarian,82.7 µM
same,TGI,SN12C renal,> 100 µM
same,TGI,SNB-19 CNS,75 µM
same,TGI,SNB-75 CNS,44.7 µM
same,TGI,SR leukemia,> 100 µM
same,TGI,SW-620 colon,> 100 µM
same,TGI,T-47D breast,4.78 µM
same,TGI,TK-10 renal,22.1 µM
same,TGI,U251 CNS,51.1 µM
same,TGI,UACC-257 melanoma,40.8 µM
same,TGI,UACC-62 melanoma,99.3 µM
Cc1ccc(Nc2nc3nc[nH]c3c(=O)[nH]2)cc1CO,TGI,786-0 renal,29.1 µM
same,TGI,A549 NSCLC,10.2 µM
same,TGI,ACHN renal,29.4 µM
same,TGI,BT-549 breast,28.4 µM
same,TGI,CAKI-1 renal,29.3 µM
same,TGI,CCRF-CEM leukemia,36.2 µM
same,TGI,COLO 205 colon,27.8 µM
same,TGI,DU-145 prostate,33.6 µM
same,TGI,EKVX NSCLC,28 µM
same,TGI,HCC-2998 colon,28.9 µM
same,TGI,HCT-116 colon,25.4 µM
same,TGI,HCT-15 colon,29.9 µM
same,TGI,HL-60(TB) leukemia,21.6 µM
same,TGI,HOP-92 NSCLC,21 µM
same,TGI,HS 578T breast,43.9 µM
same,TGI,HT29 colon,22 µM
same,TGI,IGROV1 ovarian,28.3 µM
same,TGI,K-562 leukemia,40 µM
same,TGI,KM12 colon,22.7 µM
same,TGI,LOX IMVI melanoma,36.5 µM
same,TGI,M14 melanoma,25.5 µM
same,TGI,MALME-3M melanoma,30.4 µM
same,TGI,MCF7 breast,30.4 µM
same,TGI,MDA-MB-231 breast,24.7 µM
same,TGI,MDA-MB-435,29.6 µM
same,TGI,MOLT-4 leukemia,34.3 µM
same,TGI,NCI-H226 lung,31.8 µM
same,TGI,NCI-H23 lung,33.9 µM
same,TGI,NCI-H460 lung,30.7 µM
same,TGI,NCI-H522 lung,24.3 µM
same,TGI,NCI/ADR-RES ovarian,29.8 µM
same,TGI,OVCAR-3 ovarian,29.2 µM
same,TGI,OVCAR-4 ovarian,31.4 µM
same,TGI,OVCAR-5 ovarian,33.6 µM
same,TGI,OVCAR-8 ovarian,30.4 µM
same,TGI,PC-3 prostate,25.4 µM
same,TGI,RPMI-8226 leukemia,33.7 µM
same,TGI,RXF 393 renal,30 µM
same,TGI,SF-268 CNS,35.8 µM
same,TGI,SF-295 CNS,29.6 µM
same,TGI,SK-MEL-2 melanoma,31.2 µM
same,TGI,SK-MEL-28 melanoma,32.1 µM
same,TGI,SK-MEL-5 melanoma,31.2 µM
same,TGI,SK-OV-3 ovarian,27.7 µM
same,TGI,SNB-19 CNS,24.6 µM
same,TGI,SNB-75 CNS,29.2 µM
same,TGI,SR leukemia,37.7 µM
same,TGI,SW-620 colon,32 µM
same,TGI,T-47D breast,27.2 µM
same,TGI,TK-10 renal,31.9 µM
same,TGI,UACC-257 melanoma,31.2 µM
same,TGI,UACC-62 melanoma,25.9 µM
same,TGI,UO-31 renal,29.5 µM
